# Test results reported in ChEMBL document CHEMBL1250443, “Microarray-based method for monitoring yeast overexpression strains reveals small-molecule targets in TOR pathway” (Nat Chem Biol, 2006).
# Experiments:
# [1] = test system: Saccharomyces cerevisiae; assay: Increase of GUF1 gene expression in wild-type Saccharomyces cerevisiae transformed with overexpression plasmids by microarray; type: functional
# [2] = Inhibition of TOR signaling in wild-type Saccharomyces cerevisiae transformed with overexpression plasmids assessed as increased CIT1 gene expression by microarray
# [3] = Inhibition of TOR signaling in wild-type Saccharomyces cerevisiae transformed with overexpression plasmids assessed as increased SSH1 gene expression by microarray
# [4] = Inhibition of TOR signaling in wild-type Saccharomyces cerevisiae transformed with overexpression plasmids assessed as decreased YCR007C gene expression by microarray
# [5] = Inhibition of TOR signaling in wild-type Saccharomyces cerevisiae transformed with overexpression plasmids assessed as increased TIF2 gene expression by microarray
# [6] = Inhibition of TOR signaling in wild-type Saccharomyces cerevisiae transformed with overexpression plasmids assessed as increased YLR297W gene expression by microarray
# [7] = Inhibition of TOR signaling in wild-type Saccharomyces cerevisiae transformed with overexpression plasmids assessed as increased WRS1 gene expression by microarray
# [8] = Inhibition of TOR signaling in wild-type Saccharomyces cerevisiae transformed with overexpression plasmids assessed as decreased BUD8 gene expression by microarray
# [9] = Inhibition of TOR signaling in wild-type Saccharomyces cerevisiae transformed with overexpression plasmids assessed as decreased YPL260W gene expression by microarray
# [10] = Inhibition of TOR signaling in wild-type Saccharomyces cerevisiae transformed with overexpression plasmids assessed as decreased YLR224W gene expression by microarray
# [11] = Inhibition of TOR signaling in wild-type Saccharomyces cerevisiae transformed with overexpression plasmids assessed as decreased YKL059C gene expression by microarray
# [12] = test system: Saccharomyces cerevisiae; assay: Decrease of YKR75C gene expression in wild-type Saccharomyces cerevisiae transformed with overexpression plasmids by microarray; type: functional
# [13] = Inhibition of TOR signaling in wild-type Saccharomyces cerevisiae transformed with overexpression plasmids assessed as decreased FUS3 gene expression by microarray
# [14] = Inhibition of TOR signaling in wild-type Saccharomyces cerevisiae transformed with overexpression plasmids assessed as increased CDC5 gene expression by microarray
# [15] = Inhibition of TOR signaling in wild-type Saccharomyces cerevisiae transformed with overexpression plasmids assessed as decreased PEX7 gene expression by microarray
# [16] = Inhibition of TOR signaling in wild-type Saccharomyces cerevisiae transformed with overexpression plasmids assessed as increased YPR153W gene expression by microarray
# [17] = Inhibition of TOR signaling in wild-type Saccharomyces cerevisiae transformed with overexpression plasmids assessed as decreased ELP2 gene expression by microarray
# [18] = Inhibition of TOR signaling in wild-type Saccharomyces cerevisiae transformed with overexpression plasmids assessed as decreased YBR284W gene expression by microarray
# [19] = Inhibition of TOR signaling in wild-type Saccharomyces cerevisiae transformed with overexpression plasmids assessed as decreased DCR2 gene expression by microarray
# [20] = Inhibition of TOR signaling in wild-type Saccharomyces cerevisiae transformed with overexpression plasmids assessed as decreased HMI1 gene expression by microarray
# [21] = Inhibition of TOR signaling in wild-type Saccharomyces cerevisiae transformed with overexpression plasmids assessed as decreased ERO1 gene expression by microarray
# [22] = Inhibition of TOR signaling in wild-type Saccharomyces cerevisiae transformed with overexpression plasmids assessed as increased YLR346C gene expression by microarray
# [23] = Inhibition of TOR signaling in wild-type Saccharomyces cerevisiae transformed with overexpression plasmids assessed as decreased YPT11 gene expression by microarray
# [24] = Inhibition of TOR signaling in wild-type Saccharomyces cerevisiae transformed with overexpression plasmids assessed as decreased GIP3 gene expression by microarray
# [25] = Inhibition of TOR signaling in wild-type Saccharomyces cerevisiae transformed with overexpression plasmids assessed as increased NEM1 gene expression by microarray
# [26] = Inhibition of TOR signaling in wild-type Saccharomyces cerevisiae transformed with overexpression plasmids assessed as increased SRP72 gene expression by microarray
# [27] = Inhibition of TOR signaling in wild-type Saccharomyces cerevisiae transformed with overexpression plasmids assessed as increased LIN1 gene expression by microarray
# [28] = Inhibition of TOR signaling in wild-type Saccharomyces cerevisiae transformed with overexpression plasmids assessed as decreased CDC42 gene expression by microarray
# [29] = Inhibition of TOR signaling in wild-type Saccharomyces cerevisiae transformed with overexpression plasmids assessed as decreased GIS4 gene expression by microarray
# [30] = Inhibition of TOR signaling in wild-type Saccharomyces cerevisiae transformed with overexpression plasmids assessed as increased YFL030W gene expression by microarray
# [31] = Inhibition of TOR signaling in wild-type Saccharomyces cerevisiae transformed with overexpression plasmids assessed as increased THI21 gene expression by microarray
# [32] = Inhibition of TOR signaling in wild-type Saccharomyces cerevisiae transformed with overexpression plasmids assessed as increased HCA4 gene expression by microarray
# [33] = Inhibition of TOR signaling in wild-type Saccharomyces cerevisiae transformed with overexpression plasmids assessed as increased ZDS2 gene expression by microarray
# [34] = Inhibition of TOR signaling in wild-type Saccharomyces cerevisiae transformed with overexpression plasmids assessed as increased RTT106 gene expression by microarray
# [35] = Inhibition of TOR signaling in wild-type Saccharomyces cerevisiae transformed with overexpression plasmids assessed as decreased HPA2 gene expression by microarray
# [36] = test system: Saccharomyces cerevisiae; assay: Increase of YDR514C gene expression in wild-type Saccharomyces cerevisiae transformed with overexpression plasmids by microarray; type: functional
# [37] = Inhibition of TOR signaling in wild-type Saccharomyces cerevisiae transformed with overexpression plasmids assessed as decreased PTC4 gene expression by microarray
# [38] = Inhibition of TOR signaling in wild-type Saccharomyces cerevisiae transformed with overexpression plasmids assessed as decreased ATX2 gene expression by microarray
# [39] = Inhibition of TOR signaling in wild-type Saccharomyces cerevisiae transformed with overexpression plasmids assessed as increased YDL025C gene expression by microarray
# [40] = Inhibition of TOR signaling in wild-type Saccharomyces cerevisiae transformed with overexpression plasmids assessed as increased YCL049C gene expression by microarray
# [41] = Inhibition of TOR signaling in wild-type Saccharomyces cerevisiae transformed with overexpression plasmids assessed as decreased HES1 gene expression by microarray
# [42] = Inhibition of TOR signaling in wild-type Saccharomyces cerevisiae transformed with overexpression plasmids assessed as increased VID22 gene expression by microarray
# [43] = Inhibition of TOR signaling in wild-type Saccharomyces cerevisiae transformed with overexpression plasmids assessed as decreased CAJ1 gene expression by microarray
# [44] = Inhibition of TOR signaling in wild-type Saccharomyces cerevisiae transformed with overexpression plasmids assessed as decreased YFL054C gene expression by microarray
# [45] = Inhibition of TOR signaling in wild-type Saccharomyces cerevisiae transformed with overexpression plasmids assessed as increased PDR3 gene expression by microarray
smiles,measurement,setting,value
CO[C@H]1C[C@@H]2CC[C@@H](C)[C@@](O)(O2)C(=O)C(=O)N2CCCC[C@H]2C(=O)O[C@H]([C@H](C)C[C@@H]2CC[C@@H](O)[C@H](OC)C2)CC(=O)[C@H](C)/C=C(\C)[C@@H](O)[C@@H](OC)C(=O)[C@H](C)C[C@H](C)/C=C/C=C/C=C/1C [SIROLIMUS],fold change (FC),[1],-3.1
same,fold change (FC),[2],2.1
same,fold change (FC),[3],2.3
same,fold change (FC),[4],-2.2
same,fold change (FC),[5],2.6
same,fold change (FC),[6],3.6
same,fold change (FC),[7],2.8
same,fold change (FC),[8],-6.4
same,fold change (FC),[9],-2
same,fold change (FC),[10],-2.9
same,fold change (FC),[11],-2.3
same,fold change (FC),[12],-2.5
same,fold change (FC),[13],-3.2
same,fold change (FC),[14],3.4
same,fold change (FC),[15],-2.8
same,fold change (FC),[16],2.1
same,fold change (FC),[17],-8.1
same,fold change (FC),[18],-3.2
same,fold change (FC),[19],-5.9
same,fold change (FC),[20],-2.3
same,fold change (FC),[21],-2.3
same,fold change (FC),[22],2.7
same,fold change (FC),[23],-3.1
same,fold change (FC),[24],-2.3
same,fold change (FC),[25],2.2
same,fold change (FC),[26],3.4
same,fold change (FC),[27],2.5
same,fold change (FC),[28],-2
same,fold change (FC),[29],-7.2
same,fold change (FC),[30],3.2
same,fold change (FC),[31],2.2
same,fold change (FC),[32],2.9
same,fold change (FC),[33],13.6
same,fold change (FC),[34],8.3
same,fold change (FC),[35],-2.1
same,fold change (FC),[36],-3.1
same,fold change (FC),[37],-4
same,fold change (FC),[38],-2
same,fold change (FC),[39],2.5
same,fold change (FC),[40],2.1
same,fold change (FC),[41],-3.1
same,fold change (FC),[42],2.3
same,fold change (FC),[43],-5.6
same,fold change (FC),[44],-2.5
same,fold change (FC),[45],14.4
